Where two headings read alike, the source gives them in different places.
Key:
[1] = test system: OCI-LY10; assay: CTG Cell Viability Assay - OCI-LY10; type: cell-based, human; conditions: OCI-LY10, 4 days, read-out: CTG Cell Viability Assay - OCI-LY10: Average external-IC50
Procedure: Compound-mediated viability effect on OCI-LY10 or TMD8 was quantitatively determined using the CellTiter-Glo® Luminescent Cell Viability Assay kit from Promega (Catalog number G7570) following manufacturer's recommended procedures. […] Compounds were then added to the assay plate with final top concentration of 10 μM and 1:3 dilution series with total of 9 doses. The final DMSO concentration was normalized to 0.2%. The assay plates were incubated at 37° C. for 4 days under 5% CO2. Then the assay plate was equilibrated at room temperature for 10 minutes. […] The data was then analyzed by software Prism 7.0 from GraphPad and the dose response curves were fit using a three-parameter logistic equation to calculate IC50.

[2] = molecular target: IRAK4 (Homo sapiens (Human), UniProt Q9NWZ3); assay: IRAK4 MSD degradation in OCI-LY10; type: cell-based; conditions: MSD
IRAK4, sequence (Q9NWZ3 whole entry): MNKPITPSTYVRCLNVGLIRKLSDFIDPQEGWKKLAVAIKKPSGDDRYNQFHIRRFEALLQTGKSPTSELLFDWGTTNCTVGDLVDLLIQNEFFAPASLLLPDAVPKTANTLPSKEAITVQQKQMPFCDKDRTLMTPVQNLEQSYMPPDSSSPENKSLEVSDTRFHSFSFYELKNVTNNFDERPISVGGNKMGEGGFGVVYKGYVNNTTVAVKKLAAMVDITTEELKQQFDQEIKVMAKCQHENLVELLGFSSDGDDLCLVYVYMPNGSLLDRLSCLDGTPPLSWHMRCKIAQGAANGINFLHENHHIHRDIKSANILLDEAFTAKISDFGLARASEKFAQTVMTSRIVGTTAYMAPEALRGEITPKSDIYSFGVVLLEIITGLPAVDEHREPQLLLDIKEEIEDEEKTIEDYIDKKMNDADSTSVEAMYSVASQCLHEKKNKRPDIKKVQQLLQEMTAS
Procedure: Degradation of IRAK4 in OCI-LY10 was quantitatively measured using Meso Scale Discovery technology. […] Compounds were then added to the assay plates with a final top concentration of 1 to 10 μM in a 1:3 dilution series with total of 8 doses. The assay plates were then incubated for 4 to 24 hours at 37° C. under 5% CO2. […] To prepare MSD assay plates (Meso Scale Discovery Catalog number L15XA-3), the plates were coated with […] capture antibody (mouse Anti-IRAK4 antibody [2H9], ab119942) in PBS, at 40 μL/well. […] Cell lysates were then added to MSD assay plates and the plates were incubated at room temperature for 1 hour. The plates were then washed 3 times with 150 μL/well TBST buffer and 25 μL/well primary detection antibody (rabbit Anti-IRAK4 antibody [Y279], from Abcam. Catalog number ab32511, […]). The assay plates were then incubated at room temperature for 1 hour, washed 3 times with 150 μL/well TBST buffer and 25 µL/well secondary detection antibody, SULFO-TAG anti-rabbit antibody were added (anti rabbit antibody from Meso Scale Discovery, Catalog number R32AB-1, 1 μg/mL). The assay plates were then incubated at room temperature for 1 hour, washed 3 times with 150 μL/well TB ST buffer, and 150 μL/well MSD reading buffer (Meso Scale Discovery catalog number R92TC-2) was added. The plates were then analyzed by a MSD reader (Meso Scale Discovery, Model Quick Plex SQ 120). The data was then analyzed by software Prism 7.0 from GraphPad and the dose-depended IRAK4 degradation were fit using a three-parameter logistic equation to calculate DC50.

[3] = OCI-LY10, 4 hrs, read-out: IRAK4 MSD degradation in OCI-LY10 at 4 hrs: Average external-Abs DC50
[4] = OCI-LY10, 24 hrs, read-out: IRAK4 MSD degradation in OCI-LY10 at 24 hrs: Average external-Abs DC50

Row | SMILES | IC50 ([1]; Homo sapiens, OCI-Ly10, 96 h) [nM] | DC50 [2, 3] [nM] | also measured
1 | O=C1CCC(N2C(=O)c3cccc(NCCCOC4CCN(C[C@H]5CC[C@H](n6cc(NC(=O)c7cnn8ccc(N9CC%10CC(C9)O%10)nc78)c(C(F)F)n6)CC5)CC4)c3C2=O)C(=O)N1 (stereo partly drawn) [I-344] | < 50 | 100 to 1000 | 
2 | Cn1c(=O)n(C2CCC(=O)NC2=O)c2cccc(CCCOCC3CCN(C[C@H]4CC[C@H](n5cc(NC(=O)c6coc(-c7ccnc(NCC8CC8)c7)n6)c(C(F)F)n5)CC4)CC3)c21 (stereo partly drawn) [I-120] | > 1000 | < 10 | 
3 | Cn1c(=O)n(C2CCC(=O)NC2=O)c2ccc(CN3CCN([C@@H]4CCN(C[C@H]5CC[C@H](n6cc(NC(=O)c7coc(-c8ccnc(NCC9CC9)c8)n7)c(C(F)F)n6)CC5)C4)CC3)cc21 (stereo partly drawn) [I-110] | > 1000 |  | 
4 | O=C1CCC(N2Cc3c(NCCOCC4CCN(C[C@H]5CC[C@H](n6cc(NC(=O)c7cnn8ccc(N9C[C@H]%10C[C@@H]9CO%10)nc78)c(C(F)F)n6)CC5)CC4)cccc3C2=O)C(=O)N1 (stereo partly drawn) [I-374] | > 1000 | > 1000 | DC50 [2, 4]: 10 to 100 nM
5 | CN(CCC1CCN(Cc2cccc3c2n(C)c(=O)n3C2CCC(=O)NC2=O)CC1)C[C@H]1CC[C@H](n2cc(NC(=O)c3cnn4ccc(N5C[C@H](N)CC(F)(F)C5)nc34)c(C(F)F)n2)CC1 (stereo partly drawn) [I-155] | > 1000 | 10 to 100 | 
6 | O=C1CCC(N2C(=O)c3cccc(NCC4CC5(CCN(C[C@H]6CC[C@H](n7cc(NC(=O)c8cnn9ccc(N%10C[C@H]%11C[C@@H]%10CO%11)nc89)c(C(F)F)n7)CC6)CC5)C4)c3C2=O)C(=O)N1 (stereo partly drawn) [I-373] | < 50 | > 1000 | DC50 [2, 4]: 10 to 100 nM
7 | Cn1c(=O)n([C@@H]2CCC(=O)NC2=O)c2cccc(CCCOC3CCN(C[C@H]4CC[C@H](n5cc(NC(=O)c6cnn7ccc(N8CCOCC8)nc67)c(C(F)F)n5)CC4)CC3)c21 [I-311, N-(3-(difluoromethyl)-1-((1r,4r)-4-((4-(3-(1-((R)-2,6-dioxopiperidin-3-yl)-3-methyl-2-oxo-2,3-dihydro-1H-benzo [d]imidazol-4-yl)propoxy)piperidin-1-yl)methyl)cyclohexyl)-1H-pyrazol-4-yl)-5-morpholinopyrazolo[1,5-a] pyrimidine-3-carboxamide] | > 1000 | 10 to 100 | 
8 | O=C1CCC(N2C(=O)c3cccc(NC4CC5(CCN(C[C@H]6CC[C@H](n7cc(NC(=O)c8cnn9ccc(N%10C[C@H]%11C[C@@H]%10CO%11)nc89)c(C(F)F)n7)CC6)CC5)C4)c3C2=O)C(=O)N1 (stereo partly drawn) [I-381] | 50 to 100 | 10 to 100 | DC50 [2, 4]: < 10 nM
9 | CC[C@@H]1[C@H](F)C(=O)N[C@@H]1COc1ncc(C#C[C@H]2CC[C@H](CN3CCC(OCCNc4cccc5c4C(=O)N(C4CCC(=O)NC4=O)C5=O)CC3)CC2)c2cc(C(N)=O)c(OC)cc12 (stereo partly drawn) [I-386] | < 50 | 100 to 1000 | DC50 [2, 4]: 10 to 100 nM
10 | CN1C(=O)CCC(n2c(=O)n(C)c3c(CCCOC4CCN(C[C@H]5CC[C@H](n6cc(NC(=O)c7cnn8ccc(N9CCOCC9)nc78)c(C(F)F)n6)CC5)CC4)cccc32)C1=O (stereo partly drawn) [I-195] | > 1000 | 100 to 1000 | 
11 | N#CCc1ccc2c(N[C@H]3CC[C@H](N4CCN(C(=O)COCCOCCOCCOCCNc5cccc6c5C(=O)N(C5CCC(=O)NC5=O)C6=O)CC4)CC3)ncnc2c1 (stereo partly drawn) [I-52] | 100 to 500 | > 1000 | 
12 | Cn1c(=O)n(C2CCC(=O)NC2=O)c2cccc(CCCOC3CN(C[C@H]4CC[C@H](n5cc(NC(=O)c6coc(-c7ccnc(NCC8CC8)c7)n6)c(C(F)F)n5)CC4)C3)c21 (stereo partly drawn) [I-122] | > 1000 |  | 
13 | Cn1c(=O)n(C2CCC(=O)NC2=O)c2cccc(-c3ccc4nn(CCOC[C@H]5CC[C@H](n6cc(NC(=O)c7cnn8ccc(N9CCOCC9)nc78)c(C(F)F)n6)CC5)cc4c3)c21 (stereo partly drawn) [I-406] | > 1000 |  | 
14 | CN(CCCOCC#Cc1ccc2c(c1)n(C)c(=O)n2C1CCC(=O)NC1=O)C[C@H]1CC[C@H](n2cc(NC(=O)c3coc(-c4ccnc(NCC5CC5)c4)n3)c(C(F)F)n2)CC1 (stereo partly drawn) [I-126] | > 1000 |  | 
15 | Cn1c(=O)n(C2CCC(=O)NC2=O)c2ccc(CCCOCC3CCN(C[C@H]4CC[C@H](n5cc(NC(=O)c6coc(-c7ccnc(NCC8CC8)c7)n6)c(C(F)F)n5)CC4)CC3)cc21 (stereo partly drawn) [I-119] | > 1000 |  | 
16 | CN(C[C@@H]1CN(CCNCc2ccc3c(c2)n(C)c(=O)n3C2CCC(=O)NC2=O)CCO1)C(=O)[C@H]1CC[C@H](n2cc(NC(=O)c3coc(-c4ccnc(NCC5CC5)c4)n3)c(C(F)F)n2)CC1 (stereo partly drawn) [I-106] | > 1000 |  | 

Row | SMILES | IC50 ([1]; Homo sapiens, OCI-Ly10, 96 h) [nM] | DC50 [2, 3] [nM] | also measured
17 | CN(CC[C@H]1CN(CCCc2cccc3c2n(C)c(=O)n3C2CCC(=O)NC2=O)CCO1)C[C@H]1CC[C@H](n2cc(NC(=O)c3coc(-c4ccnc(NCC5CC5)c4)n3)c(C(F)F)n2)CC1 (stereo partly drawn) [I-117] | > 1000 |  | 
18 | CN(CC1CCC(n2cc(NC(=O)c3coc(-c4ccnc(NCC5CC5)c4)n3)c(C(F)F)n2)CC1)C[C@H]1CN(CCCc2cccc3c2n(C)c(=O)n3C2CCC(=O)NC2=O)CCO1 (stereo partly drawn) [I-113] | > 1000 |  | 
19 | CN(C[C@@H]1CN(CCNCc2ccc3c(c2)n(C)c(=O)n3C2CCC(=O)NC2=O)CCO1)C[C@H]1CC[C@H](n2cc(NC(=O)c3coc(-c4ccnc(NCC5CC5)c4)n3)c(C(F)F)n2)CC1 (stereo partly drawn) [I-109] | > 1000 |  | 
20 | CN1C(=O)CCC(n2c(=O)n(C)c3c(C#CCOC4CCN(C[C@H]5CC[C@H](n6cc(NC(=O)c7cnn8ccc(N9C[C@H]%10C[C@@H]9CO%10)nc78)c(C(F)F)n6)CC5)CC4)cccc32)C1=O (stereo partly drawn) [I-563, N-[3-(difluoromethyl)-1-[4-[[4-[3-[3-methyl-1-(1-methyl-2,6-dioxo-3-piperidyl)-2-oxo-benzimidazol-4-yl]prop-2-ynoxy]-1-piperidyl]methyl]cyclohexyl]pyrazol-4-yl]-5-[(1R,4R)-2-oxa-5-azabicyclo [2.2.1]heptan-5-yl] pyrazolo[1,5-a] pyrimidine-3-carboxamide] |  |  | IC50 ([1]; Homo sapiens, 96 h): > 1000 nM
21 | O=C1CCC(n2c3ccccc3c3c(CCCOC4CCN(CC5CCC(n6cc(NC(=O)c7coc(-c8ccnc(NCC9CC9)c8)n7)c(C(F)F)n6)CC5)CC4)ccnc32)C(=O)N1 (stereo not drawn) [I-123] | 500 to 1000 |  | 
22 | CC1C(=O)N(C2CCC(=O)NC2=O)c2cccc(C3CCN(CCCN(C)C[C@H]4CC[C@H](n5cc(NC(=O)c6coc(-c7ccnc(NCC8CC8)c7)n6)c(C(F)F)n5)CC4)CC3)c21 (stereo partly drawn) [I-114] |  |  | IC50 [1]: 100 to 500 nM
23 | Cn1c(=O)n(C2CCC(=O)NC2=O)c2cccc(CCCOCC(F)CNC(=O)c3cnc(-n4ncc5cc(C#N)cnc54)cc3NC3CC3)c21 (stereo not drawn) [I-137] | > 1000 |  | 
24 | Cn1c(=O)n(C2CCC(=O)NC2=O)c2ccc(C#CC3CCN(C[C@H]4CC[C@H](n5cc(NC(=O)c6coc(-c7ccnc(NCC8CC8)c7)n6)c(C(F)F)n5)CC4)CC3)cc21 (stereo partly drawn) [I-111] | > 1000 |  | 
25 | Cn1c(=O)n(C2CCC(=O)NC2=O)c2ccc(CCCOC3CN(C[C@H]4CC[C@H](n5cc(NC(=O)c6coc(-c7ccnc(NCC8CC8)c7)n6)c(C(F)F)n5)CC4)C3)cc21 (stereo partly drawn) [I-121] | > 1000 |  | 
26 | CN(CCOCCCc1cccc2c1n(C)c(=O)n2C1CCC(=O)NC1=O)C[C@H]1CC[C@H](n2cc(NC(=O)c3coc(-c4ccnc(NCC5CC5)c4)n3)c(C(F)F)n2)CC1 (stereo partly drawn) [I-124] | > 1000 |  | 
27 | Cn1c(=O)n(C2CCC(=O)NC2=O)c2cccc(CCCOC3CCN(C[C@H]4CC[C@H](n5cc(NC(=O)c6cnn7ccc(N8CCNCC8)nc67)c(C(F)F)n5)CC4)CC3)c21 (stereo partly drawn) [I-125] | > 1000 |  | 
28 | Cn1c(=O)n(C2CCC(=O)NC2=O)c2cccc(-c3ccc4c(cnn4CCOC[C@H]4CC[C@H](n5cc(NC(=O)c6cnn7ccc(N8CCOCC8)nc67)c(C(F)F)n5)CC4)c3)c21 (stereo partly drawn) [I-405] | > 1000 |  | 
29 | CN(CCOCCCc1ccc2c(c1)n(C)c(=O)n2C1CCC(=O)NC1=O)C[C@H]1CC[C@H](n2cc(NC(=O)c3coc(-c4ccnc(NCC5CC5)c4)n3)c(C(F)F)n2)CC1 (stereo partly drawn) [I-128] | > 1000 |  | 
30 | CN1C(=O)C(C2CCC(=O)NC2=O)c2cccc(CCCOC3CCN(CC4CCC(n5cc(NC(=O)c6cnn7ccc(NC8CCCCC8O)nc67)c(C(F)F)n5)CC4)CC3)c21 (stereo not drawn) [I-290] |  |  | IC50 [1]: > 1000 nM
31 | CN(CC[C@@H]1CN(CCCc2cccc3c2n(C)c(=O)n3C2CCC(=O)NC2=O)CCO1)C[C@H]1CC[C@H](n2cc(NC(=O)c3coc(-c4ccnc(NCC5CC5)c4)n3)c(C(F)F)n2)CC1 (stereo partly drawn) [I-116] | > 1000 |  | 

Source: patent publication US11352350B2, “IRAK degraders and uses thereof” (Kymera Therapeutics, Inc., priority 2018, dated 2022)
